Test results published in ChEMBL document CHEMBL4393657, “Tetrazole hybrids and their antifungal activities” (2019).
≈ marks a conversion by molar mass, not a printed value.

Experiments:
Type in all cases: functional
Nakaseomyces glabratus [1] = assay: Antifungal activity against Candida glabrata assessed as reduction in fungal cell growth incubated for 48 hrs by broth microdilution method
Candida parapsilosis [2] = assay: Potency index, ratio for MIC of fluconazole to MIC of compound for Antifungal activity against Candida parapsilosis ATCC 22019 assessed as reduction in fungal cell growth incubated for 48 hrs by broth microdilution method
Aspergillus niger [3] = assay: Potency index, ratio for MIC of fluconazole to MIC of compound for antifungal activity against Aspergillus niger
Candida albicans [4] = assay: Potency index, ratio for MIC of fluconazole to MIC of compound for antifungal activity against Candida albicans V-01-191A-261 assessed as reduction in fungal cell growth incubated for 48 hrs by broth microdilution method
Cryptococcus neoformans [5] = assay: Antifungal activity against Cryptococcus neoformans LA314 assessed as reduction in fungal cell growth incubated for 48 hrs by broth microdilution method; settings: LA314, 48 h
Aspergillus niger [6] = assay: Antifungal activity against Aspergillus niger assessed as reduction in fungal cell growth incubated for 72 hrs by broth microdilution method
Pichia kudriavzevii = assay: Antifungal activity against Candida krusei assessed as reduction in fungal cell growth incubated for 48 hrs by broth microdilution method
Cryptococcus neoformans [7] = assay: Potency index, ratio for MIC of fluconazole to MIC of compound for antifungal activity against Cryptococcus neoformans LA314 assessed as reduction in fungal cell growth incubated for 48 hrs by broth microdilution method
Candida tropicalis [8] = assay: Antifungal activity against Candida tropicalis assessed as reduction in fungal cell growth incubated for 48 hrs by broth microdilution method
Candida parapsilosis [9] = assay: Antifungal activity against Candida parapsilosis ATCC 22019 assessed as reduction in fungal cell growth incubated for 48 hrs by broth microdilution method; settings: Lodderomyces parapsilosis, ATCC 22019, 48 h
Candida albicans [10] = assay: Antifungal activity against Candida albicans assessed as reduction in fungal cell growth incubated for 48 hrs by broth microdilution method
Candida tropicalis [11] = assay: Potency index, ratio for MIC of fluconazole to MIC of compound for Antifungal activity against Candida tropicalis assessed as reduction in fungal cell growth incubated for 48 hrs by broth microdilution method
Nakaseomyces glabratus [12] = assay: Potency index, ratio for MIC of fluconazole to MIC of compound for antifungal activity against Candida glabrata assessed as reduction in fungal cell growth incubated for 48 hrs by broth microdilution method
Staphylococcus aureus [13] = assay: Antifungal activity against methicillin-resistant Staphylococcus aureus after 24 hrs by broth microdilution assay
Candida albicans [14] = assay: Potency index, ratio for MIC of griseofulvin to MIC of compound for antifungal activity against Candida albicans MTCC 227 assessed as reduction in fungal cell growth incubated for 24 and 48 hrs by broth microdilution method
Aspergillus fumigatus = assay: Antifungal activity against Aspergillus fumigatus assessed as reduction in fungal cell growth incubated for 24 and 48 hrs by broth microdilution method
Candida albicans [15] = assay: Antifungal activity against Candida albicans MTCC 227 assessed as reduction in fungal cell growth incubated for 24 and 48 hrs by broth microdilution method
Candida albicans [16] = assay: Potency index, ratio for MIC of fluconazole to MIC of compound for antifungal activity against Candida albicans TA
Candida albicans [17] = assay: Antifungal activity against Candida albicans TA
Candida albicans [18] = assay: In vivo antifungal activity against Candida albicans TA infected in CDF-1 mouse dosed orally assessed as survival of mouse; settings: po
Candida albicans [19] = assay: Antifungal activity against Candida albicans assessed as reduction in fungal cell growth incubated for 24 hrs by broth microdilution method
Staphylococcus aureus [20] = assay: Potency index, ratio for MIC of methicillin to MIC of compound for […] incubated for 24 hrs by broth microdilution method

With `C[C@H](n1nnnc1CCN1CCN(c2cccc(C(F)(F)F)c2)CC1)[C@](O)(Cn1cncn1)c1ccc(F)cc1F` the MIC (Nakaseomyces glabratus [1]) was 0.12 to 1 µg/mL (≈ 0.208 to 1.73 µM), the Ratio (Candida parapsilosis [2]) was 16 and the Ratio (Aspergillus niger [3]) was 16. It also gave a Ratio (Candida albicans [4]) of 16, an MIC (Cryptococcus neoformans [5]) of 0.12 to 1 µg/mL (≈ 0.208 to 1.73 µM) and an MIC (Aspergillus niger [6]) of 0.12 to 1 µg/mL (≈ 0.208 to 1.73 µM). It also gave an MIC (Pichia kudriavzevii) of 0.12 to 1 µg/mL (≈ 0.208 to 1.73 µM), a Ratio (Cryptococcus neoformans [7]) of 16 and an MIC (Candida tropicalis [8]) of 0.12 to 1 µg/mL (≈ 0.208 to 1.73 µM). For the same compound, the MIC (Candida parapsilosis [9]) was 0.12 to 1 µg/mL (≈ 0.208 to 1.73 µM), the MIC (Candida albicans [10]) was 0.12 to 16 µg/mL (≈ 0.208 to 27.7 µM) and the Ratio (Candida tropicalis [11]) was 16. The Ratio (Nakaseomyces glabratus [12]) was 16.
`COc1cccc(OC)c1C(=O)N[C@@H]1C(=O)N2[C@@H]1SC(C)(C)[C@@H]2C(=O)O` [METHICILLIN] showed an MIC (Staphylococcus aureus [13]) of over 250 µg/mL.
With `Cc1ccc2[nH]c(-c3cc4cc(Cl)ccc4n4nnnc34)nc2c1` the Ratio (Candida albicans [14]) was 4, the MIC (Aspergillus fumigatus) was 125 to 1000 µg/mL (≈ 373 to 2990 µM) and the MIC (Candida albicans [15]) was 125 µg/mL (≈ 373 µM).
`C[C@@H](n1cnnn1)[C@](O)(Cn1cncn1)c1ccc(F)cc1F` showed a Ratio (Candida albicans [16]) of 8, an MIC (Candida albicans [17]) of 12.5 µg/mL (≈ 38.9 µM) and an ED50 (Candida albicans [18]) of 0.18 mg/kg.
Work on `FC(F)(F)c1cc(-c2ccc(I)cc2)nc2nnnn12` yielded an MIC (Candida albicans [19]) of 62.5 µg/mL (≈ 160 µM) and a Ratio (Staphylococcus aureus [20]) of over 64.
